Experimental data as given in ChEMBL document CHEMBL3045446, “In vitro antimicrobial and antimycobacterial activity of some chalcones and their derivatives” (2013).
≈ marks a conversion by molar mass, not a printed value.

Key:
Type in all cases: functional
Aspergillus niger [1] = test: Antimicrobial activity against Aspergillus niger MTCC 282 assessed as diameter of growth inhibition zone after 48 hr
Pseudomonas aeruginosa [2] = test: Antimicrobial activity against Pseudomonas aeruginosa MTCC 741 assessed as growth inhibition after 24 hr by agar streak dilution method; conditions: MTCC 741, 24 h
Aspergillus niger [3] = test: Antimicrobial activity against Aspergillus niger MTCC 282 assessed as growth inhibition after 48 hr by agar streak dilution method; conditions: MTCC 282, 48 h
Aspergillus clavatus [4] = test: Antimicrobial activity against Aspergillus clavatus MTCC 1323 assessed as growth inhibition after 48 hr by agar streak dilution method; conditions: MTCC 1323, 48 h
Shigella flexneri [5] = test: Antimicrobial activity against Shigella flexneri MTCC1457 assessed as growth inhibition after 24 hr by agar streak dilution method; conditions: MTCC1457, 24 h
Klebsiella pneumoniae [6] = test: Antimicrobial activity against Klebsiella pneumoniae MTCC 109 assessed as growth inhibition after 24 hr by agar streak dilution method; conditions: MTCC 109, 24 h
Bacillus cereus [7] = test: Antimicrobial activity against Bacillus cereus MTCC 430 assessed as diameter of growth inhibition zone after 24 hr
Aspergillus fumigatus [8] = test: Antimicrobial activity against Aspergillus fumigatus MTCC 343 assessed as diameter of growth inhibition zone after 48 hr
Pseudomonas aeruginosa [9] = test: Antimicrobial activity against Pseudomonas aeruginosa MTCC 741 assessed as diameter of growth inhibition zone after 24 hr
Bacillus cereus [10] = test: Antimicrobial activity against Bacillus cereus MTCC 430 assessed as growth inhibition after 24 hr by agar streak dilution method; conditions: MTCC 430, 24 h
Salmonella typhi [11] = test: Antimicrobial activity against Salmonella enterica subsp. enterica serovar Typhi MTCC 733 assessed as diameter of growth inhibition zone after 24 hr
Escherichia coli [12] = test: Antimicrobial activity against Escherichia coli MTCC 739 assessed as diameter of growth inhibition zone after 24 hr
Aspergillus clavatus [13] = test: Antimicrobial activity against Aspergillus clavatus MTCC 1323 assessed as diameter of growth inhibition zone after 48 hr
Klebsiella pneumoniae [14] = test: Antimicrobial activity against Klebsiella pneumoniae MTCC 109 assessed as diameter of growth inhibition zone after 24 hr
Candida albicans [15] = test: Antimicrobial activity against Candida albicans MTCC 183 assessed as growth inhibition after 48 hr by agar streak dilution method; conditions: MTCC 183, 48 h
Candida albicans [16] = test: Antimicrobial activity against Candida albicans MTCC 183 assessed as diameter of growth inhibition zone after 48 hr
Proteus vulgaris [17] = test: Antimicrobial activity against Proteus vulgaris MTCC 1771 assessed as growth inhibition after 24 hr by agar streak dilution method; conditions: MTCC 1771, 24 h
Proteus vulgaris [18] = test: Antimicrobial activity against Proteus vulgaris MTCC 1771 assessed as diameter of growth inhibition zone after 24 hr
Salmonella typhi [19] = test: Antimicrobial activity against Salmonella enterica subsp. enterica serovar Typhi MTCC 733 assessed as growth inhibition after 24 hr by agar streak dilution method; conditions: MTCC 733, 24 h
Staphylococcus aureus [20] = test: Antimicrobial activity against Staphylococcus aureus MTCC 96 assessed as growth inhibition after 24 hr by agar streak dilution method; conditions: MTCC 96, 24 h
Shigella flexneri [21] = test: Antimicrobial activity against Shigella flexneri MTCC1457 assessed as diameter of growth inhibition zone after 24 hr
Staphylococcus aureus [22] = test: Antimicrobial activity against Staphylococcus aureus MTCC 96 assessed as diameter of growth inhibition zone after 24 hr
Escherichia coli [23] = test: Antimicrobial activity against Escherichia coli MTCC 739 assessed as growth inhibition after 24 hr by agar streak dilution method; conditions: MTCC 739, 24 h
Aspergillus fumigatus [24] = test: Antimicrobial activity against Aspergillus fumigatus MTCC 343 assessed as growth inhibition after 48 hr by agar streak dilution method; conditions: MTCC 343, 48 h
[25] = test system: Mycobacterium tuberculosis; test: Antituberculosis activity against Mycobacterium tuberculosis H37Rv assessed as growth inhibition after 12 to 28 days by L-J MIC method; conditions: for MIC: Mycobacterium tuberculosis, H37Rv

COc1ccc(-c2cc(-c3ccc(Nc4cc(=O)oc5ccccc45)cc3)nc(N)c2C#N)cc1OC
diameter of the inhibition zone (DIZ) (Aspergillus niger [1]): 27 mm
MIC (Pseudomonas aeruginosa [2]): 6.25 µg/mL (≈ 12.7 µM)
MIC (Aspergillus niger [3]): 6.25 µg/mL (≈ 12.7 µM)
MIC (Aspergillus clavatus [4]): 6.25 µg/mL (≈ 12.7 µM)
MIC (Shigella flexneri [5]): 6.25 µg/mL (≈ 12.7 µM)
MIC (Klebsiella pneumoniae [6]): 3.12 µg/mL (≈ 6.36 µM)
diameter of the inhibition zone (DIZ) (Bacillus cereus [7]): 26 mm
diameter of the inhibition zone (DIZ) (Aspergillus fumigatus [8]): 28 mm
diameter of the inhibition zone (DIZ) (Pseudomonas aeruginosa [9]): 25 mm
MIC (Bacillus cereus [10]): 6.25 µg/mL (≈ 12.7 µM)
diameter of the inhibition zone (DIZ) (Salmonella typhi [11]): 27 mm
diameter of the inhibition zone (DIZ) (Escherichia coli [12]): 26 mm
diameter of the inhibition zone (DIZ) (Aspergillus clavatus [13]): 25 mm
diameter of the inhibition zone (DIZ) (Klebsiella pneumoniae [14]): 28 mm
MIC (Candida albicans [15]): 6.25 µg/mL (≈ 12.7 µM)
diameter of the inhibition zone (DIZ) (Candida albicans [16]): 27 mm
MIC (Proteus vulgaris [17]): 6.25 µg/mL (≈ 12.7 µM)
diameter of the inhibition zone (DIZ) (Proteus vulgaris [18]): 25 mm
MIC (Salmonella typhi [19]): 3.12 µg/mL (≈ 6.36 µM)
MIC (Staphylococcus aureus [20]): 3.12 µg/mL (≈ 6.36 µM)
diameter of the inhibition zone (DIZ) (Shigella flexneri [21]): 27 mm
diameter of the inhibition zone (DIZ) (Staphylococcus aureus [22]): 29 mm
MIC (Escherichia coli [23]): 6.25 µg/mL (≈ 12.7 µM)
MIC (Aspergillus fumigatus [24]): 3.12 µg/mL (≈ 6.36 µM)
growth inhibition (GI) [25]: 99%
MIC [25]: 12.5 µg/mL (≈ 25.5 µM)

Nc1nc(-c2ccc(Nc3cc(=O)oc4ccccc34)cc2)cc(-c2ccc(Cl)cc2Cl)n1
diameter of the inhibition zone (DIZ) (Aspergillus niger [1]): 20 mm
MIC (Pseudomonas aeruginosa [2]): 25 µg/mL (≈ 52.6 µM)
MIC (Aspergillus niger [3]): 25 µg/mL (≈ 52.6 µM)
MIC (Aspergillus clavatus [4]): 50 µg/mL (≈ 105 µM)
MIC (Shigella flexneri [5]): 25 µg/mL (≈ 52.6 µM)
MIC (Klebsiella pneumoniae [6]): 25 µg/mL (≈ 52.6 µM)
diameter of the inhibition zone (DIZ) (Bacillus cereus [7]): 22 mm
diameter of the inhibition zone (DIZ) (Aspergillus fumigatus [8]): 22 mm
diameter of the inhibition zone (DIZ) (Pseudomonas aeruginosa [9]): 22 mm
MIC (Bacillus cereus [10]): 12.5 µg/mL (≈ 26.3 µM)
diameter of the inhibition zone (DIZ) (Salmonella typhi [11]): 20 mm
diameter of the inhibition zone (DIZ) (Escherichia coli [12]): 19 mm
diameter of the inhibition zone (DIZ) (Aspergillus clavatus [13]): 19 mm
diameter of the inhibition zone (DIZ) (Klebsiella pneumoniae [14]): 21 mm
MIC (Candida albicans [15]): 25 µg/mL (≈ 52.6 µM)
diameter of the inhibition zone (DIZ) (Candida albicans [16]): 21 mm
MIC (Proteus vulgaris [17]): 6.25 µg/mL (≈ 13.1 µM)
diameter of the inhibition zone (DIZ) (Proteus vulgaris [18]): 25 mm
MIC (Salmonella typhi [19]): 25 µg/mL (≈ 52.6 µM)
MIC (Staphylococcus aureus [20]): 12.5 µg/mL (≈ 26.3 µM)
diameter of the inhibition zone (DIZ) (Shigella flexneri [21]): 21 mm
diameter of the inhibition zone (DIZ) (Staphylococcus aureus [22]): 24 mm
MIC (Escherichia coli [23]): 50 µg/mL (≈ 105 µM)
MIC (Aspergillus fumigatus [24]): 12.5 µg/mL (≈ 26.3 µM)
growth inhibition (GI) [25]: 98%
MIC [25]: 200 µg/mL (≈ 421 µM)

N#Cc1c(-c2ccc(Cl)cc2)cc(-c2ccc(Nc3cc(=O)oc4ccccc34)cc2)nc1N
diameter of the inhibition zone (DIZ) (Aspergillus niger [1]): 20 mm
MIC (Pseudomonas aeruginosa [2]): 50 µg/mL (≈ 108 µM)
MIC (Aspergillus niger [3]): 25 µg/mL (≈ 53.8 µM)
MIC (Aspergillus clavatus [4]): 25 µg/mL (≈ 53.8 µM)
MIC (Shigella flexneri [5]): 12.5 µg/mL (≈ 26.9 µM)
MIC (Klebsiella pneumoniae [6]): 6.25 µg/mL (≈ 13.4 µM)
diameter of the inhibition zone (DIZ) (Bacillus cereus [7]): 21 mm
diameter of the inhibition zone (DIZ) (Aspergillus fumigatus [8]): 24 mm
diameter of the inhibition zone (DIZ) (Pseudomonas aeruginosa [9]): 19 mm
MIC (Bacillus cereus [10]): 25 µg/mL (≈ 53.8 µM)
diameter of the inhibition zone (DIZ) (Salmonella typhi [11]): 24 mm
diameter of the inhibition zone (DIZ) (Escherichia coli [12]): 21 mm
diameter of the inhibition zone (DIZ) (Aspergillus clavatus [13]): 21 mm
diameter of the inhibition zone (DIZ) (Klebsiella pneumoniae [14]): 25 mm
MIC (Candida albicans [15]): 6.25 µg/mL (≈ 13.4 µM)
diameter of the inhibition zone (DIZ) (Candida albicans [16]): 26 mm
MIC (Proteus vulgaris [17]): 6.25 µg/mL (≈ 13.4 µM)
diameter of the inhibition zone (DIZ) (Proteus vulgaris [18]): 26 mm
MIC (Salmonella typhi [19]): 12.5 µg/mL (≈ 26.9 µM)
MIC (Staphylococcus aureus [20]): 12.5 µg/mL (≈ 26.9 µM)
diameter of the inhibition zone (DIZ) (Shigella flexneri [21]): 23 mm
diameter of the inhibition zone (DIZ) (Staphylococcus aureus [22]): 24 mm
MIC (Escherichia coli [23]): 25 µg/mL (≈ 53.8 µM)
MIC (Aspergillus fumigatus [24]): 12.5 µg/mL (≈ 26.9 µM)
growth inhibition (GI) [25]: 98%
MIC [25]: 100 µg/mL (≈ 215 µM)

COc1ccc(-c2cc(-c3ccc(Nc4cc(=O)oc5ccccc45)cc3)nc(N)n2)cc1OC
diameter of the inhibition zone (DIZ) (Aspergillus niger [1]): 27 mm
MIC (Pseudomonas aeruginosa [2]): 12.5 µg/mL (≈ 26.8 µM)
MIC (Aspergillus niger [3]): 6.25 µg/mL (≈ 13.4 µM)
MIC (Aspergillus clavatus [4]): 12.5 µg/mL (≈ 26.8 µM)
MIC (Shigella flexneri [5]): 12.5 µg/mL (≈ 26.8 µM)
MIC (Klebsiella pneumoniae [6]): 12.5 µg/mL (≈ 26.8 µM)
diameter of the inhibition zone (DIZ) (Bacillus cereus [7]): 20 mm
diameter of the inhibition zone (DIZ) (Aspergillus fumigatus [8]): 25 mm
diameter of the inhibition zone (DIZ) (Pseudomonas aeruginosa [9]): 23 mm
MIC (Bacillus cereus [10]): 12.5 µg/mL (≈ 26.8 µM)
diameter of the inhibition zone (DIZ) (Salmonella typhi [11]): 22 mm
diameter of the inhibition zone (DIZ) (Escherichia coli [12]): 25 mm
diameter of the inhibition zone (DIZ) (Aspergillus clavatus [13]): 23 mm
diameter of the inhibition zone (DIZ) (Klebsiella pneumoniae [14]): 23 mm
MIC (Candida albicans [15]): 6.25 µg/mL (≈ 13.4 µM)
diameter of the inhibition zone (DIZ) (Candida albicans [16]): 26 mm
MIC (Proteus vulgaris [17]): 25 µg/mL (≈ 53.6 µM)
diameter of the inhibition zone (DIZ) (Proteus vulgaris [18]): 21 mm
MIC (Salmonella typhi [19]): 12.5 µg/mL (≈ 26.8 µM)
MIC (Staphylococcus aureus [20]): 6.25 µg/mL (≈ 13.4 µM)
diameter of the inhibition zone (DIZ) (Shigella flexneri [21]): 24 mm
diameter of the inhibition zone (DIZ) (Staphylococcus aureus [22]): 27 mm
MIC (Escherichia coli [23]): 6.25 µg/mL (≈ 13.4 µM)
MIC (Aspergillus fumigatus [24]): 12.5 µg/mL (≈ 26.8 µM)
growth inhibition (GI) [25]: 98%
MIC [25]: 50 µg/mL (≈ 107 µM)
